# Data taken from PubChem BioAssay (NCI).
#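 Growth conditions: 96-well plates. Treatment: test compound, 48 hours, 5 concentrations. Analysis: linear interpolation between bracketing concentrations; unreached endpoints set to highest concentration. Abbreviation: GI50, concentration required for 50% inhibition of growth. TGI: total growth inhibition.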
# How the values were obtained:
# Experiment in all cases: DTP human tumour cell line panel, 48 h
# 786-0 renal = tested on: 786-0 renal
# A498 renal = tested on: A498 renal
# A549 NSCLC = tested on: A549 NSCLC
# ACHN renal = tested on: ACHN renal
# BT-549 breast = tested on: BT-549 breast
# CAKI-1 renal = tested on: CAKI-1 renal
# CCRF-CEM leukemia = tested on: CCRF-CEM leukemia
# COLO 205 colon = tested on: COLO 205 colon
# DU-145 prostate = tested on: DU-145 prostate
# EKVX NSCLC = tested on: EKVX NSCLC
# HCC-2998 colon = tested on: HCC-2998 colon
# HCT-116 colon = tested on: HCT-116 colon
# HCT-15 colon = tested on: HCT-15 colon
# HOP-62 NSCLC = tested on: HOP-62 NSCLC
# HOP-92 NSCLC = tested on: HOP-92 NSCLC
# HS 578T breast = tested on: HS 578T breast
# HT29 colon = tested on: HT29 colon
# IGROV1 ovarian = tested on: IGROV1 ovarian
# K-562 leukemia = tested on: K-562 leukemia
# LOX IMVI melanoma = tested on: LOX IMVI melanoma
# M14 melanoma = tested on: M14 melanoma
# MALME-3M melanoma = tested on: MALME-3M melanoma
# MCF7 breast = tested on: MCF7 breast
# MDA-MB-231 breast = tested on: MDA-MB-231 breast
# MDA-MB-435 = tested on: MDA-MB-435
# MOLT-4 leukemia = tested on: MOLT-4 leukemia
# NCI-H226 lung = tested on: NCI-H226 lung
# NCI-H23 lung = tested on: NCI-H23 lung
# NCI-H460 lung = tested on: NCI-H460 lung
# NCI-H522 lung = tested on: NCI-H522 lung
# NCI/ADR-RES ovarian = tested on: NCI/ADR-RES ovarian
# OVCAR-3 ovarian = tested on: OVCAR-3 ovarian
# OVCAR-4 ovarian = tested on: OVCAR-4 ovarian
# OVCAR-5 ovarian = tested on: OVCAR-5 ovarian
# OVCAR-8 ovarian = tested on: OVCAR-8 ovarian
# PC-3 prostate = tested on: PC-3 prostate
# RPMI-8226 leukemia = tested on: RPMI-8226 leukemia
# RXF 393 renal = tested on: RXF 393 renal
# SF-268 CNS = tested on: SF-268 CNS
# SF-295 CNS = tested on: SF-295 CNS
# SF-539 CNS = tested on: SF-539 CNS
# SK-MEL-2 melanoma = tested on: SK-MEL-2 melanoma
# SK-MEL-28 melanoma = tested on: SK-MEL-28 melanoma
# SK-MEL-5 melanoma = tested on: SK-MEL-5 melanoma
# SK-OV-3 ovarian = tested on: SK-OV-3 ovarian
# SN12C renal = tested on: SN12C renal
# SNB-19 CNS = tested on: SNB-19 CNS
# SNB-75 CNS = tested on: SNB-75 CNS
# SR leukemia = tested on: SR leukemia
# SW-620 colon = tested on: SW-620 colon
# TK-10 renal = tested on: TK-10 renal
# U251 CNS = tested on: U251 CNS
# UACC-62 melanoma = tested on: UACC-62 melanoma
# UO-31 renal = tested on: UO-31 renal
smiles,measurement,setting,value
CCOc1ccc(C(C)=O)cc1NC(=O)c1cccc(-c2nnn(CC)n2)c1,GI50,786-0 renal,6.25 µM
same,TGI,786-0 renal,74.2 µM
same,GI50,A498 renal,0.803 µM
same,TGI,A498 renal,24 µM
same,GI50,A549 NSCLC,0.892 µM
same,TGI,A549 NSCLC,> 100 µM
same,GI50,ACHN renal,0.748 µM
same,TGI,ACHN renal,70.3 µM
same,GI50,BT-549 breast,0.961 µM
same,TGI,BT-549 breast,> 100 µM
same,GI50,CAKI-1 renal,0.939 µM
same,TGI,CAKI-1 renal,> 100 µM
same,GI50,CCRF-CEM leukemia,0.937 µM
same,TGI,CCRF-CEM leukemia,> 100 µM
same,GI50,COLO 205 colon,0.395 µM
same,TGI,COLO 205 colon,1.93 µM
same,GI50,DU-145 prostate,1.07 µM
same,TGI,DU-145 prostate,> 100 µM
same,GI50,EKVX NSCLC,0.83 µM
same,TGI,EKVX NSCLC,> 100 µM
same,GI50,HCC-2998 colon,1.71 µM
same,TGI,HCC-2998 colon,> 100 µM
same,GI50,HCT-116 colon,0.419 µM
same,TGI,HCT-116 colon,> 100 µM
same,GI50,HCT-15 colon,0.419 µM
same,TGI,HCT-15 colon,> 100 µM
same,GI50,HOP-62 NSCLC,0.39 µM
same,TGI,HOP-62 NSCLC,18.1 µM
same,GI50,HOP-92 NSCLC,0.418 µM
same,TGI,HOP-92 NSCLC,49.4 µM
same,GI50,HS 578T breast,0.996 µM
same,TGI,HS 578T breast,> 100 µM
same,GI50,HT29 colon,0.325 µM
same,TGI,HT29 colon,> 100 µM
same,GI50,IGROV1 ovarian,5.7 µM
same,TGI,IGROV1 ovarian,> 100 µM
same,GI50,K-562 leukemia,0.454 µM
same,TGI,K-562 leukemia,> 100 µM
same,GI50,LOX IMVI melanoma,0.59 µM
same,TGI,LOX IMVI melanoma,70.2 µM
same,GI50,M14 melanoma,0.396 µM
same,TGI,M14 melanoma,> 100 µM
same,GI50,MALME-3M melanoma,11.4 µM
same,TGI,MALME-3M melanoma,63.9 µM
same,GI50,MCF7 breast,0.333 µM
same,TGI,MCF7 breast,> 100 µM
same,GI50,MDA-MB-231 breast,1.62 µM
same,TGI,MDA-MB-231 breast,58.5 µM
same,GI50,MDA-MB-435,0.308 µM
same,TGI,MDA-MB-435,2.34 µM
same,GI50,MOLT-4 leukemia,0.682 µM
same,TGI,MOLT-4 leukemia,> 100 µM
same,GI50,NCI-H226 lung,11.2 µM
same,TGI,NCI-H226 lung,> 100 µM
same,GI50,NCI-H23 lung,0.646 µM
same,TGI,NCI-H23 lung,19 µM
same,GI50,NCI-H460 lung,0.423 µM
same,TGI,NCI-H460 lung,> 100 µM
same,GI50,NCI-H522 lung,0.147 µM
same,TGI,NCI-H522 lung,0.971 µM
same,GI50,NCI/ADR-RES ovarian,0.511 µM
same,TGI,NCI/ADR-RES ovarian,13.3 µM
same,GI50,OVCAR-3 ovarian,0.377 µM
same,TGI,OVCAR-3 ovarian,5.89 µM
same,GI50,OVCAR-4 ovarian,4.96 µM
same,TGI,OVCAR-4 ovarian,> 100 µM
same,GI50,OVCAR-5 ovarian,9.34 µM
same,TGI,OVCAR-5 ovarian,> 100 µM
same,GI50,OVCAR-8 ovarian,1.29 µM
same,TGI,OVCAR-8 ovarian,> 100 µM
same,GI50,PC-3 prostate,0.481 µM
same,TGI,PC-3 prostate,> 100 µM
same,GI50,RPMI-8226 leukemia,1.22 µM
same,TGI,RPMI-8226 leukemia,> 100 µM
same,GI50,RXF 393 renal,0.61 µM
same,TGI,RXF 393 renal,11.6 µM
same,GI50,SF-268 CNS,0.901 µM
same,TGI,SF-268 CNS,> 100 µM
same,GI50,SF-295 CNS,0.306 µM
same,TGI,SF-295 CNS,5.74 µM
same,GI50,SF-539 CNS,0.346 µM
same,TGI,SF-539 CNS,3.54 µM
same,GI50,SK-MEL-2 melanoma,0.44 µM
same,TGI,SK-MEL-2 melanoma,24 µM
same,GI50,SK-MEL-28 melanoma,4.75 µM
same,TGI,SK-MEL-28 melanoma,> 100 µM
same,GI50,SK-MEL-5 melanoma,0.465 µM
same,TGI,SK-MEL-5 melanoma,16.5 µM
same,GI50,SK-OV-3 ovarian,0.689 µM
same,TGI,SK-OV-3 ovarian,24.8 µM
same,GI50,SN12C renal,5.8 µM
same,TGI,SN12C renal,> 100 µM
same,GI50,SNB-19 CNS,1.29 µM
same,TGI,SNB-19 CNS,76.6 µM
same,GI50,SNB-75 CNS,0.209 µM
same,TGI,SNB-75 CNS,12.7 µM
same,GI50,SR leukemia,0.401 µM
same,TGI,SR leukemia,> 100 µM
same,GI50,SW-620 colon,0.492 µM
same,TGI,SW-620 colon,> 100 µM
same,GI50,TK-10 renal,14.3 µM
same,TGI,TK-10 renal,50.3 µM
same,GI50,U251 CNS,0.458 µM
same,TGI,U251 CNS,16.7 µM
same,GI50,UACC-62 melanoma,0.615 µM
same,TGI,UACC-62 melanoma,23.4 µM
same,GI50,UO-31 renal,1.94 µM
same,TGI,UO-31 renal,> 100 µM
